In patent publication US20160229839A1, “Factor XIa Inhibitors” (Merck Sharp & Dohme Corp., priority 2013, published 2016):

Molecular target: T1, purified human Factor XIa (Homo sapiens, UniProt P03951)
T1 construct: purified human Factor XIa; purchased Sekisui Diagnostics
Experiment: Factor XIa Assay (fluorogenic substrate Z-Gly-Pro-Arg-AFC)
Assay type: biochemical
Conditions: purified human Factor XIa 40 pM; Z-Gly-Pro-Arg-AFC 100 μM; 50 mM HEPES pH 7.4; read-out: hFXIa Ki (nM), Factor XIa inhibition

T1 sequence (P03951 388-625 limits assumed): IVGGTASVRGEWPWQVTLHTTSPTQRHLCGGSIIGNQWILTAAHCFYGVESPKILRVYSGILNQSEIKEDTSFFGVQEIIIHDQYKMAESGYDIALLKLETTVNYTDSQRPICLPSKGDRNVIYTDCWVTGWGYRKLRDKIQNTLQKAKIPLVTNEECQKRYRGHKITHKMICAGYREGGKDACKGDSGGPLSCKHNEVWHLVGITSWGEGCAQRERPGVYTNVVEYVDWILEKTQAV
T1 sequence (P03951 19-387 partner limits assumed): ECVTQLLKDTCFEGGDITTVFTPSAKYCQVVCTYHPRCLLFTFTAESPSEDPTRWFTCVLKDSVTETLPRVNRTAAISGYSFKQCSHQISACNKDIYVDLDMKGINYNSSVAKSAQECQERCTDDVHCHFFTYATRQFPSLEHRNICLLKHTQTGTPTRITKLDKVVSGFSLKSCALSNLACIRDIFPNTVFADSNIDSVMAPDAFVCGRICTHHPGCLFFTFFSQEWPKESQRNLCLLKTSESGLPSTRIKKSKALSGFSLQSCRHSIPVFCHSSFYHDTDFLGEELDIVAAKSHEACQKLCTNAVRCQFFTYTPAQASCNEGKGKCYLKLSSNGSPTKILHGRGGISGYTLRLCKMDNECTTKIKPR

Ki [nM]	Structure (SMILES)
31.4	O=C(Nc1ccc2[nH]ncc2c1)[C@@H]1[C@H](c2ccccc2)CCCN1C(=O)/C=C/c1cc(Cl)ccc1-n1cnnn1 [Example 1-65, (2S,3S)-1-((E)-3-(5-chloro-2-(1H-tetrazol-1-yl)phenyl)acryloyl)-N-(1H-indazol-5-yl)-3-phenylpiperidine-2-carboxamide]
3910	COC(=O)Nc1ccc(-c2c[nH]c([C@@H]3[C@H](CO[Si](C)(C)C(C)(C)C)CCCN3C(=O)/C=C/c3cc(Cl)ccc3-n3cnnn3)n2)cc1 [Example 1-66, methyl (4-(2-((2S,3R)-3-(((tert-butyldimethylsilyl)oxy)methyl)-1-((E)-3-(5-chloro-2-(1H-tetrazol-1-yl)phenyl)acryloyl)piperidin-2-yl)-1H-imidazol-4-yl)phenyl)carbamate]
2640	COC(=O)Nc1ccc(-c2c[nH]c([C@@H]3[C@H](CO)CCCN3C(=O)/C=C/c3cc(Cl)ccc3-n3cnnn3)n2)cc1 [Example 1-67, methyl (4-(2-((2S,3R)-1-((E)-3-(5-chloro-2-(1H-tetrazol-1-yl)phenyl)acryloyl)-3-(hydroxymethyl)piperidin-2-yl)-1H-imidazol-4-yl)phenyl)carbamate]
428	O=C(/C=C/c1cc(Cl)ccc1-n1cnnn1)N1CCC[C@@H](c2ccccc2)[C@H]1c1nc2cc(F)ccc2[nH]1 [Example 1-68, (E)-3-(5-chloro-2-(1H-tetrazol-1-yl)phenyl)-1-((2S,3S)-2-(5-fluoro-1H-benzo[d]imidazol-2-yl)-3-phenylpiperidin-1-yl)prop-2-en-1-one]
2610	O=C(O)c1ccc(NC(=O)C2CCC(c3ccccc3)CN2C(=O)/C=C/c2cc(Cl)ccc2-n2cnnn2)cc1 (stereo not drawn) [Example 1-71, (E)-4-(1-(3-(5-chloro-2-(1H-tetrazol-1-yl)phenyl)acryloyl)-5-phenylpiperidine-2-carboxamido)benzoic acid]
63.6	O=C(NC12CCC(C(=O)O)(CC1)CC2)[C@@H]1[C@H](c2ccccc2)CCCN1C(=O)/C=C/c1cc(Cl)ccc1-n1cnnn1 [Example 1-72, 4-((2S,3S)-1-((E)-3-(5-chloro-2-(1H-tetrazol-1-yl)phenyl)acryloyl)-3-phenylpiperidine-2-carboxamido)bicyclo[2.2.2]octane-1-carboxylic acid]
